Reference: ChEMBL document CHEMBL1949582, “Suppression of nitric oxide production on LPS/IFN-γ-stimulated RAW264.7 macrophages by a novel catechin, pilosanol N, from Agrimonia pilosa Ledeb” (Bioorg Med Chem Lett, 2012)
Calls of active or inactive are those of the source. No cut-off for these calls is given here.

Columns and labels:
[1] = system: RAW264.7; assay: Antiinflammatory activity in mouse RAW264.7 cells assessed as inhibition of LPS/IFN-gamma-induced NO production at 25 to 100 uM after 20 hrs by Griess method; type: functional, cell-based
[2] = system: RAW264.7; assay: Antiinflammatory activity in mouse RAW264.7 cells assessed as inhibition of LPS/IFN-gamma-induced iNOS protein production at 100 uM by RT-PCR analysis; type: functional, cell-based
[3] = system: RAW264.7; assay: Antiinflammatory activity in mouse RAW264.7 cells assessed as inhibition of LPS/IFN-gamma-induced NO production after 20 hrs by Griess method; type: functional, cell-based
[4] = system: RAW264.7; assay: Cytotoxicity against mouse RAW264.7 cells assessed as cell viability at 25 to 100 uM by MTT assay; type: cell-based; conditions: raw264.7, 100 µM
[5] = system: RAW264.7; assay: Antiinflammatory activity in mouse RAW264.7 cells assessed as inhibition of LPS/IFN-gamma-induced iNOS gene expression at 25 uM by RT-PCR analysis; type: functional
[6] = Antioxidant activity in PBS buffer assessed as nitric oxide scavenging activity by measuring inhibition of nitrite production from NOR3 after 60 mins; type: functional
[7] = system: RAW264.7; assay: Protection against LPS/IFN-gamma-induced cell damage in mouse RAW264.7 cells by MTT assay; type: functional, cell-based

| SMILES | inhibition [1] | inhibition [2] | inhibition [3] | Activity [4] | inhibition at 25 µM [5] [%] | inhibition [6] | Activity [7] |
| --- | --- | --- | --- | --- | --- | --- | --- |
| C[C@@H]1O[C@@H](Oc2c(-c3ccc(O)c(O)c3)oc3cc(O)cc(O)c3c2=O)[C@H](O)[C@H](O)[C@H]1O | Active | – | – | – | – | – | – |
| COc1c(C)c(O)c(Cc2c(O)cc(O)c3c2O[C@H](c2ccc(O)c(O)c2)[C@@H](O)C3)c(O)c1C(C)=O [PILOSANOL N] | – | Active | Dose-dependent effect | Non-toxic | 60 | Dose-dependent effect | Dose-dependent effect |
